Measured values as given in patent US20110034378A1, “Pharmaceutical Combinations Comprising Specified Age Breaker and Further Drugs, I.A. Antihypertensive Drugs, Antidiabetic Drugs Etc” (priority 2008, published 2011).

System: obese Zucker spontaneously hypertensive fatty rats (Ob-ZSF1)
Assay: Effect of compound 27 on diabetic cardiomyopathy and nephropathy in Ob-ZSF1 rats
Format: in vivo, rat
Procedure: Aim: The aim of this study was to study the effect of compound 27 on diabetic cardiomyopathy and nephropathy in obese Zucker spontaneously hypertensive fatty rats (Ob-ZSF1), an animal model of diabetes with progressive cardiac and renal dysfunction.
Method: Male Ob-ZSF1 rats were implanted with telemetry transmitters. At the age of 3 months, rats were divided into two treatment groups, compound 27, 9 mg/kg ip bid and 27 mg/kg ip, bid and a control group to which vehicle was administered until study termination at 34 weeks. 0.5% salt was added in drinking water from […] of treatment for 6 weeks in order to accelerate the vasculopathy. At fixed predetermined time intervals, blood pressure, urine albumin and creatinine were monitored during the study. Terminal measurement of cardiac function was performed in the same animals using Millar Pressure Volume (P-V) System. PV loops were captured to establish cardiac functional parameters and differences in end systolic pressure volume relationship (ESPVR) and end diastolic pressure volume relationship (EDPVR) at different preloads. Heart and kidney were collected from same set of animals at termination for gross and microscopic histopathological examination and for gene expression studies.

[1] = 9 and 27 mg/kg ip bid, terminal Millar P-V measurement, vs vehicle control
[2] = longitudinally over time, compared to control
[3] = persistent severe hyperglycemia

CS(=O)(=O)NNC(=O)c1ccc[n+](CC(=O)c2cccs2)c1.[Cl-] [compound 27, 1-(2-thien-2′-yl-2-oxoethyl)-3-(methanesulfonyl hydrazinocarbonyl)pyridinium chloride]
Relative heart wet weight (27 mg/kg group): significantly lesser
damage to cardiomyocytes, microscopic examination (27 mg/kg group, compared to the control group): less severe damage
cardiac output (9 and 27 mg/kg ip bid, terminal Millar P-V measurement at 34 weeks, vs vehicle control): significant improvement
diastolic relaxation [1]: more efficient
systolic contractile function [1]: better
ventricular compliance [1]: improved
peripheral resistance (afterload) (9 and 27 mg/kg ip bid, vs vehicle control): significant reduction
renal pathology observed microscopically (compared to control): less severe
Inflammatory cytokine Interleukin-6 (IL-6) (compound 27 treated groups): reduced significantly
Renal function (higher dose group, compared to control): distinct improvement
Percent increase from baseline for albumin to creatinine ratio [2]: significantly reduced
Percent increase from baseline for serial creatinine excretion [2]: significantly reduced
Percent increase from baseline for urinary albumin excretion [2]: significantly reduced
Brain natriuretic peptide (BNP) expression (marker of cardiac failure, compared to control animals): reduced
cardiac function (conclusion) [3]: clearly preserved
renal dysfunction (conclusion) [3]: reduced the severity
BP (telemetry, compound 27 treated animals): reduction
